Molecular target: not listed separately
Assay: Ellman assay, 96-well, […] nm
Assay type: biochemical, Homo sapiens
Details: read-out: AgAChE, IC50, ^a nM

For `CNC(=O)Oc1cccc(C(F)(F)F)c1` [2a, 3-(trifluoromethyl)phenyl methylcarbamate], the IC50 was > 100000 nM.

Molecular target: T1, hAChE (Homo sapiens, UniProt P22303)
T1 construct: gene ACHE; commercial recombinant human enzyme (Sigma-Aldrich)
Assay: Ellman assay, 96-well, […] nm
Assay type: biochemical
Details: not given

T1 sequence (P22303 32-614): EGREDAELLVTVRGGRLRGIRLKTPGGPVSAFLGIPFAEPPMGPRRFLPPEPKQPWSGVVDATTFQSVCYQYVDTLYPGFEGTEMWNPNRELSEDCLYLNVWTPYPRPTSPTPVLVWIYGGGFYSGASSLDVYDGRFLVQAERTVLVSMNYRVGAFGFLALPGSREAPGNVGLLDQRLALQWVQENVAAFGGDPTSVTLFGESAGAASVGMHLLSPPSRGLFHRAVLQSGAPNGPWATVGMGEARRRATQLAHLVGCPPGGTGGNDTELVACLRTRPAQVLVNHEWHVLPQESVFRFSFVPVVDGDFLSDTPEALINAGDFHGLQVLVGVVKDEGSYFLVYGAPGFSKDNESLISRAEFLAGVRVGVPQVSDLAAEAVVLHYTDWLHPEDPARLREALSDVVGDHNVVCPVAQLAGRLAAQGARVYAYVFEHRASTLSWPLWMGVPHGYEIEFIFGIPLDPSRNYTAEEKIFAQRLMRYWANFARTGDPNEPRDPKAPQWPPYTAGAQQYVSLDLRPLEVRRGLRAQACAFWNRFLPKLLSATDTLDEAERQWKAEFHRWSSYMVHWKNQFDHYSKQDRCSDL

Point of comparison: `CNC(=O)Oc1cc(C(C)(C)C)ccc1Br` [1d, 2-bromo-5-(tert-butyl)phenyl methylcarbamate], IC50 0.048 µM. Against it:
- CNC(=O)Oc1ccc(Br)c(C(C)(C)C)c1 [1b, 4-bromo-3-(tert-butyl)phenyl methylcarbamate] — 25-fold higher, 1.2 µM
- CNC(=O)Oc1cc(C(C)(C)C)ccc1I [1e, 5-(tert-butyl)-2-iodophenyl methylcarbamate] — 13-fold higher, 0.64 µM
- CCCCCCc1ccc(C(C)(C)C)cc1OC(=O)NC [1f, 5-(tert-butyl)-2-hexylphenyl methylcarbamate] — 130-fold higher, 6.3 µM
- C=CCNC(=O)c1ccc(OC(=O)NC)cc1C(C)(C)C [1h, 4-(allylcarbamoyl)-3-(tert-butyl)phenyl methylcarbamate] — 58-fold higher, 2.8 µM
- CNC(=O)Oc1ccc(C(=O)NC)c(C(C)(C)C)c1 [1i, 3-(tert-butyl)-4-(methylcarbamoyl)phenyl methylcarbamate] — higher, > 100 µM
- CNC(=O)Oc1ccc(C(=O)NCC(C)C)c(C(C)(C)C)c1 [1j, 3-(tert-butyl)-4-(isobutylcarbamoyl)phenyl methylcarbamate] — higher, > 100 µM
- CCN(CC)C(=O)c1ccc(OC(=O)NC)cc1C(C)(C)C [1k, 3-(tert-butyl)-4-(diethylcarbamoyl)phenyl methylcarbamate] — 48-fold higher, 2.3 µM
- CNC(=O)Oc1cc(C(C)(C)C)ccc1SC [1m, 5-(tert-butyl)-2-(methylthio)phenyl methylcarbamate] — 13-fold higher, 0.64 µM
- CNC(=O)Oc1cc(C(C)(C)C)ccc1SCC(C)C [1n, 5-(tert-butyl)-2-(isobutylthio)phenyl methylcarbamate] — 98-fold higher, 4.7 µM
- CNC(=O)Oc1cc(C(C)(C)C)ccc1SC(C)C [1o, 5-(tert-butyl)-2-(isopropylthio)phenyl methylcarbamate] — 46-fold higher, 2.2 µM
- CNC(=O)Oc1ccc(C)c([Si](C)(C)C)c1 [3c, 4-methyl-3-(trimethylsilyl)phenyl methylcarbamate] — 50-fold higher, 2.4 µM
- CNC(=O)Oc1cc(F)cc([Si](C)(C)C)c1 [3g, 3-fluoro-5-(trimethylsilyl)phenyl methylcarbamate] — 88-fold higher, 4.2 µM
- CC[Si](C)(C)c1cc(OC(=O)NC)ccc1C [4c, 3-(ethyldimethylsilyl)-4-methylphenyl methylcarbamate] — 29-fold higher, 1.4 µM
- CC[Si](C)(C)c1cc(F)cc(OC(=O)NC)c1 [4g, 3-(ethyldimethylsilyl)-5-fluorophenyl methylcarbamate] — 40-fold higher, 1.9 µM
- CCCSc1ccccc1OC(=O)NC [6a, 2-(propylthio)phenyl methylcarbamate] — 48-fold higher, 2.3 µM

Same assay, conditions: acetylthiocholine, pH 7.8, 10 min pre-incubation, 0.1% DMSO; covalent; read-out: hAChE ^aIC50

Compound “3-(tert-butyl)-4-(ethyl(methyl)carbamoyl)phenyl methylcarbamate [1l]” has an IC50 of 5.5 µM.

Molecular target: T1, hAChE
Assay: Ellman assay, 96-well, […] nm
Assay type: biochemical
Details: acetylthiocholine, pH 7.8, 10 min pre-incubation, 0.1% DMSO; covalent; read-out: hAChE IC50 ^a; cited from earlier work

Point of comparison: `CC[Si](C)(C)c1cccc(OC(=O)NC)c1` [4a], IC50 0.63 µM. Against it:
- CNC(=O)Oc1cccc([Si](C)(C)C)c1 [3a] — within 1.5-fold, 0.49 µM

Same assay, conditions: read-out: hAChE IC50 ^a; acetylthiocholine, pH 7.8, 10 min pre-incubation, 0.1% DMSO; covalent; cited from earlier work

For `CCC(CC)CSc1ccccc1OC(=O)NC` [5a], the IC50 is given as 5 µM.

Same assay, conditions: read-out: hAChE ^aIC50; acetylthiocholine, pH 7.8, 10 min pre-incubation, 0.1% DMSO; covalent; cited from earlier work

In the case of `CNC(=O)Oc1cccc(C(C)(C)C)c1` [1a, 3-tert-butylphenyl methylcarbamate], the IC50 is listed as 0.32 µM.
